Values quoted from earlier work in patent publication US20190000794A1, “TRANSMUCOSAL CANNABINOID FORMULATION INCLUDING A CHITOSAN EXCIPEINT” (priority 2017, published 2019).

Details: oral consumption; first pass metabolism in the liver

**Q.** For CCCCCc1cc(O)c2c(c1)OC(C)(C)[C@@H]1CCC(C)=C[C@@H]21 [THC, trans-Δ^9-tetrahydrocannabinol], which “fraction of THC consumed orally that is metabolized through first pass metabolism” value is on record?
**A.** The value was “up to 97%”.
